The target of the assay is T1, TNK2 (ACK) (Homo sapiens, UniProt Q07912).
T1 construct: purchased Thermo Fisher Scientific (Life Technologies) SelectScreen
The assay is described as follows: SelectScreen LanthaScreen. The assay is classed as binding. As to conditions: read-out: % displacement. In short, it runs like this:
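SelectScreen broad panel; activity (Z'LYTE, Adapta) plus binding formats. ATP: Km app for CSF1R Z'LYTE; 10 for CAMK1 Adapta. Readout = % per kinase.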

Each structure is given as a SMILES string.

T1 sequence (Q07912 whole entry): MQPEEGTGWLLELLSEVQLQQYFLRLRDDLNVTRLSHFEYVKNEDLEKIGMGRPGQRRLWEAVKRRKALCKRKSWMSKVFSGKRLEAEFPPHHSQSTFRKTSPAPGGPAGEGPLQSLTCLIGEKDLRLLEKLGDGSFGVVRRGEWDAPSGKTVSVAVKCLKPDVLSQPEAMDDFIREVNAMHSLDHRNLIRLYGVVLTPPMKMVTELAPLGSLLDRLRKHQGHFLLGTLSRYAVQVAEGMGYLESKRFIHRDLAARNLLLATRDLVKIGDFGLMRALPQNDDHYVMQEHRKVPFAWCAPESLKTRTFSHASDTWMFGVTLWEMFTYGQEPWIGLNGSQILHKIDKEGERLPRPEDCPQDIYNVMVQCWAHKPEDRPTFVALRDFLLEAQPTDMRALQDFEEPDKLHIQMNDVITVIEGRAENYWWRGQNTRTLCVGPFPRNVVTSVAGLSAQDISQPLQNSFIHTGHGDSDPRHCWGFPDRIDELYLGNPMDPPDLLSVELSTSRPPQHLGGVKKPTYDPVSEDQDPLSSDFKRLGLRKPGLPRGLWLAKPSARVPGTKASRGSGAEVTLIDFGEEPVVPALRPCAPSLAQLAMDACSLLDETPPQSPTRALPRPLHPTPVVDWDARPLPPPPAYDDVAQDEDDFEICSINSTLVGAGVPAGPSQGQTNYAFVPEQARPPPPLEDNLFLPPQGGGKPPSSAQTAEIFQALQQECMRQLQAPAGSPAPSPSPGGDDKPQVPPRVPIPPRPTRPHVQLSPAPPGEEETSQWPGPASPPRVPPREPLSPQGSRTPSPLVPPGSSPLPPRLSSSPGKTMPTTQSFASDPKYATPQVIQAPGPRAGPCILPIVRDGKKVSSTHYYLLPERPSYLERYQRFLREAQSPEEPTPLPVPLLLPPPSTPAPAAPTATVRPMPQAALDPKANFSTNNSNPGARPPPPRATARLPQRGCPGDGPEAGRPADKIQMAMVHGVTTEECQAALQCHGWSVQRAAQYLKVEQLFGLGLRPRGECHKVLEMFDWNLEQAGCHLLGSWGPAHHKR

`CN(C(=O)CN1CCOCC1)c1ccc2sc3c(-c4cccc5c(=O)cc(N6CC7CCC(C6)O7)oc45)cccc3c2c1` [NU5455]: the inhibition at 1 µM came to 1.8%.

These data come from PMC6934184, “Selective DNA-PKcs inhibition extends the therapeutic index of localized radiotherapy and chemotherapy” (The Journal of Clinical Investigation, 2019).
